Data reported in patent US10358453B2, “Antiviral compounds” (priority 2015, dated 2019).

How the values were obtained:
recombinant RSV complex = recombinant RSV complex (Human respiratory syncytial virus A, UniProt P28887); assay: RSV polymerase inhibition assay; type: biochemical; details: 10 nM recombinant RSV complex, 2 h at 30° C.; Table E = <1 μM, Table F = <50 μM; read-out: IC50
Experimental: Standard RSV polymerase assays were conducted in the presence of 10 nM recombinant RSV complex in a reaction buffer containing Tris-HCl pH7.5, 6 mM MgCl2, and other additives and substrates including RNA oligonucleotides and radionucleotides. Standard reactions were incubated in 96-well plate format for 2 h at 30° C., in the presence of increasing concentration of inhibitor. The reaction was stopped with 90 μL of 0.1M EDTA, and the reaction product was transferred to a “reading” 96-well plate. After washing of the plate, radiolabeled RNA products were detected according to standard procedures with a Trilux Topcount scintillation counter. The compound concentration at which the enzyme-catalyzed rate was reduced by 50% (IC50) was calculated by fitting the data to a non-linear regression (sigmoidal).

[1] = Cytotoxicity determination (CCK-8, without addition of virus); type: cell-based; details: human, HEp-2 cells (uninfected), no virus, Table C = greater than 100 μM, Table D = equal to or less than 100 μM and greater than 10 μM
Experimental: CPE reduction assays are performed as described by Sidwell and Huffman et al., Appl. Microbiol. (1971) 22(5):797-801 with slight modifications. HEp-2 cells (ATCC#, CCL-23) are seeded at a density of 1,500 cells/30 μL/well into the 384-well cell plate(s) (Corning#3701) one day prior to the assay. Compounds are added into 384-well cell plates by Labcyte POD 810 Plate Assembler system. Each of the test compounds is provided to duplicate wells of a 384-well cell plate at final concentrations starting from 100 μM or 1 μM using 1/3 stepwise dilutions for 9 points. Quick-thaw Respiratory Syncytial Virus (RSV) long strain (ATCC#VR-26) stock in a 37° C. water bath. Place on ice until ready to use. Viruses are diluted to the concentration of 100 TCID50/30 μL with medium and 30 μl diluted RSV are added into related wells of 384-well cell plates. For each plate, sixteen wells are set aside as uninfected, untreated cell controls (CC), and nine wells per test plate receive virus only as a control for virus replication (VC). The final DMSO concentration of all wells is 1%. Place the plates at 37° C., 5% CO2 for 5 days.
In order to determine the compound cytotoxicity, in parallel, each of the compounds is applied to duplicate wells in a 384-well cell plate at serial final concentrations starting from 100 μM using ½ stepwise dilutions for 7 points without addition of virus. Incubate the cells at 37° C., 5% CO2 for 5 days. Add 6 μL CCK-8 into each well and incubate in a CO2 incubator at 37° C. for 3-4 h. Read the plates to obtain the optical densities which are used to calculate 50% cytotoxicity concentration (CC50).

[2] = test system: RSV subgenomic replicon 395 HeLa and APC126; assay: RSV subgenomic replicon assay (Renilla luciferase); type: cell-based; details: RSV replicon cells (395 HeLa 7 days or APC126 3 days), Table G = less than 1 μM, Table H = equal to or higher than 1 μM and less than 50 μM
Description: The RSV subgenomic replicon 395 HeLa and APC126 were licensed from Apath (Brooklyn, N.Y.) and were originally developed by Dr. Mark Meeples of Center for Vaccines & Immunity, the Research Institute at Nationwide Children's Hospital in Columbus, Ohio. To generate subgenomic RSV replicon, three glycoprotein genes, those for SH, G, and F, from a full-length recombinant GFP-expressing (rg) RSV antigenomic cDNA were deleted. In their place, a blasticidin S deaminase (bsd) gene was inserted. Through multiple steps, the RSV replicon was established in HeLa cells (395 Hela) or BHK cells (APC126). Both 395 HeLa and APC126 cells were cultured in Dulbecco's Modified Eagle Medium (DMEM) containing 4500 mg/L D-glucose, L-glutamine, and 110 mg/L sodium pyruvate (Invitrogen, Cat. #11995-040). The medium was further supplemented with 10% (v/v) fetal bovine serum (FBS) (Mediatech, Cat. #35-010-CV), 1% (v/v) penicillin/streptomycin (Mediatech, Cat. #30-002-CI), and 10 μg/mL of Blasticidin (BSD) (Invivogen, Cat. code ant-bl-1). Cells were maintained at 37° C. in a humidified 5% CO2 atmosphere.
Determination of 50% inhibitory concentration (EC50), 90% inhibitory concentration (EC90) and 50% cytotoxic concentration (CC50) in RSV replicon cells were performed by the following procedure. On the first day, 5000 RSV replicon cells per well were plated in a 96-well plate. On the following day, compounds to be tested were solubilized in 100% DMSO to 100X the desired final testing concentration. Each compound was serially diluted (1:3) up to 9 distinct concentrations. Compounds in 100% DMSO were reduced to 10% (v/v) DMSO by diluting 1:10 in cell culture media. A 10 μL sample of the compounds diluted to 10% (v/v) DMSO with cell culture media was used to treat the RSV replicon cells in 96-well format. The final DMSO concentration was 1% (v/v). Cells were incubated with compounds for 7 days (for 395Hela) or 3 days (for APC126) at 37° C. in a 5% CO2 atmosphere. In each assay, positive control that was previously characterized in the RSV replicon assay was included.
The Renilla Luciferase Assay System (Promega, Cat. #E2820) was used to measure anti-RSV replicon activity. Assay plates were set up as stated above. Luminescence was recorded using a Perkin Elmer multilabel counter Victor3V. EC50, the concentration of the drug required for reducing RSV replicon RNA by 50% in relation to the untreated cell control value, was calculated from the plot of percentage reductions of the […] against the drug concentrations using the Microsoft Excel forecast function.

[3] = human respiratory syncytial virus

Sequence of recombinant RSV complex (P28887 whole entry): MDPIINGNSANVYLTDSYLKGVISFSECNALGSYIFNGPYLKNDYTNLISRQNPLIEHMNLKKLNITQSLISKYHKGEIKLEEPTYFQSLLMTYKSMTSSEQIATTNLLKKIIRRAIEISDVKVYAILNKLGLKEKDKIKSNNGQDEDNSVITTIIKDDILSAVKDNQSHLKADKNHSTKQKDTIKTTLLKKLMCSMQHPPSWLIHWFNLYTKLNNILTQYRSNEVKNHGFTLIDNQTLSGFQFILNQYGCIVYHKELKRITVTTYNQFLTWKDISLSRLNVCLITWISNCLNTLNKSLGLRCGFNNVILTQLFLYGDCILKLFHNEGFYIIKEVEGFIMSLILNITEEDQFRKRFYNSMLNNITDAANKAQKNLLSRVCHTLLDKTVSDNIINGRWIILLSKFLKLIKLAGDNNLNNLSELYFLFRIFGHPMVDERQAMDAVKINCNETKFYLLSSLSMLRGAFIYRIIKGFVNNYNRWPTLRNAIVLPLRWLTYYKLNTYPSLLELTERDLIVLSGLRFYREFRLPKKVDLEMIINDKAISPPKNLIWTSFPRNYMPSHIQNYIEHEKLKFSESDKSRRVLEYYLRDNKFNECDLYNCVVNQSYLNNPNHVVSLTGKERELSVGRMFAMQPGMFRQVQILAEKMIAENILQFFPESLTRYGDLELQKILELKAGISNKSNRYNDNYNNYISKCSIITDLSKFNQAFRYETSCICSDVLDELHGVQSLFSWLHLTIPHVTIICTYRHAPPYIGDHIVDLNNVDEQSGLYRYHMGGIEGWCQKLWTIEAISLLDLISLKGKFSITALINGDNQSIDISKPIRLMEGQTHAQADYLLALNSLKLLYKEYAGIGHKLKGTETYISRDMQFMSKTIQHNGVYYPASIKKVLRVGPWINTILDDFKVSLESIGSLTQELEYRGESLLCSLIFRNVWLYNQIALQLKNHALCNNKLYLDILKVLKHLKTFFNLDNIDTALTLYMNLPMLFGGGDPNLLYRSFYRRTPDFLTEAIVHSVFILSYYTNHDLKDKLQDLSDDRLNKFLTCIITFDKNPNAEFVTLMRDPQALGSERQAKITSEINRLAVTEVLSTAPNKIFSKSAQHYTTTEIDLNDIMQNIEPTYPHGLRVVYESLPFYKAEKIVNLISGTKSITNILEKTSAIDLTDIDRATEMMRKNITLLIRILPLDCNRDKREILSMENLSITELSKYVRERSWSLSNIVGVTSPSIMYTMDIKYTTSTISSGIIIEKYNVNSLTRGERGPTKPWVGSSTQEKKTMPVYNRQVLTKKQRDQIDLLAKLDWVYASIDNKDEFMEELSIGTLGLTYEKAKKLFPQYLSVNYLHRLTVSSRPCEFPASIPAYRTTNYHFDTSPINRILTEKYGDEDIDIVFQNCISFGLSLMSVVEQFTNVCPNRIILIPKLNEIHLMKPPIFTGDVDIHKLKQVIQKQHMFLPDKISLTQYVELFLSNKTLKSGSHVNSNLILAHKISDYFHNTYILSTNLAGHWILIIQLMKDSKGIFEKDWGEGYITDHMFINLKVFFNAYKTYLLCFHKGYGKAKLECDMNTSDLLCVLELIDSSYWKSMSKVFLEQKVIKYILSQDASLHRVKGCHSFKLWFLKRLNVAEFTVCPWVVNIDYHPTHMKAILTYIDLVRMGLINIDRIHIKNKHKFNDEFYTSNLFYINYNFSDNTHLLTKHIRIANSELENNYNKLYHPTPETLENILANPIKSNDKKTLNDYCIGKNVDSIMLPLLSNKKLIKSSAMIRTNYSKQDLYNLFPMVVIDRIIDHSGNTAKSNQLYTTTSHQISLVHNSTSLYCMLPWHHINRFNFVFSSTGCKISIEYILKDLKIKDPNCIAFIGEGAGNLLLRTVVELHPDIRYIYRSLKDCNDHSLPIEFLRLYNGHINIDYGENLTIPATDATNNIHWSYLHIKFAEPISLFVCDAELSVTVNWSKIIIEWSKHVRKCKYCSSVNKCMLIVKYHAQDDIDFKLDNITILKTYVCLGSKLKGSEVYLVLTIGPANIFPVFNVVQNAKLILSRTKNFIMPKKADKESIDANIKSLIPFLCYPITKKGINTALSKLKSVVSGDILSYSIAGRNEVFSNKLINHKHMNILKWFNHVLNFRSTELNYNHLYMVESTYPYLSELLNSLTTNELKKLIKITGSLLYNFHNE
Sequence of recombinant RSV complex (P03421 whole entry, further chain): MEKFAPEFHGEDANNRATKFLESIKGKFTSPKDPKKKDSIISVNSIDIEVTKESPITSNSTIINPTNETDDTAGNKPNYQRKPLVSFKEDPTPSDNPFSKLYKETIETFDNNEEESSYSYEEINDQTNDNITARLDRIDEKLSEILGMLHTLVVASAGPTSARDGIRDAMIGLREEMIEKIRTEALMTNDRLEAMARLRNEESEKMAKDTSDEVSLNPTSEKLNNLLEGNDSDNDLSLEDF

SMILES | IC50 (recombinant RSV complex) [nM] | CC50 at 5 days [1] [nM] | EC50 [2, 3] [nM] | EC50 [2] [nM]
COc1cc(C(=O)NC[C@@](O)(c2cc([C@]3(C)CCN3)cc(-c3ccc(F)cc3)n2)C(F)(F)F)ccc1OC[C@@H](C)O (racemic) [Compound 14] | < 1000 | 10000 to 100000 | < 1000 | –
COc1cc(C(=O)NC[C@@](O)(c2cc(C3(C)CCN3)cc(-c3ccc(F)cc3)n2)C(F)(F)F)ccc1OC[C@@H](C)O (single isomer, unassigned) [Compound 15] | < 1000 | 10000 to 100000 | < 1000 | –
COc1cc(C(=O)NC[C@@](O)(c2cc3c(c(-c4ccc(F)cc4)n2)NC[C@@]3(C)N)C(F)(F)F)ccc1OCCO (single isomer, unassigned) [Compound 51] | < 1000 | > 100000 | < 1000 | –
COc1cc(C(=O)NC[C@](O)(c2cc3c(c(-c4ccc(F)cc4)n2)NC[C@]3(C)N)C(F)(F)F)ccc1OCCO (single isomer, unassigned) [Compound 53] | < 1000 | – | – | –
COc1cc(C(=O)NCC(O)(c2cc3c(c(-c4ccc(F)cc4)n2)OCCC3(C)N)C(F)(F)F)ccc1OCC(C)O (single isomer, unassigned) [Compound 86] | < 1000 | 10000 to 100000 | 1000 to 50000 | –
COc1cc(C(=O)NC[C@](O)(c2cc3c(c(-c4ccc(F)cc4)n2)OCC[C@]3(C)N)C(F)(F)F)ccc1OC[C@@H](C)O (single isomer, unassigned) [Compound 87] | < 1000 | > 100000 | < 1000 | –
COc1cc(C(=O)NCC(O)(c2cc3c(c(-c4ccc(F)cc4)n2)OCC3(C)N)C(F)(F)F)cc2c1NC(=O)C2 (centres unmarked) [Compound 9] | < 1000 | – | – | –
COc1cc(C(=O)NCC(O)(c2cc3c(c(-c4ccc(F)cc4)n2)OC[C@@]3(C)N)C(F)(F)F)cc2c1OC(=O)NC2 (some centres unmarked) [Compound 17] | < 1000 | – | – | –
CC1(N)COc2c1cc(C(O)(CNC(=O)c1ccc(OC3CC3)c(OC3CC3)c1)C(F)(F)F)nc2-c1ccc(F)cc1 (centres unmarked) [Compound 25] | < 1000 | 10000 to 100000 | – | –
COc1cc(C(=O)NCC(O)(c2cc3c(c(-c4ccccc4)n2)OCC3(C)N)C(F)(F)F)ccc1OCCO (centres unmarked) [Compound 27] | < 1000 | 10000 to 100000 | – | –
COc1cc(C(=O)NCC(O)(c2cc3c(c(-c4ccc(F)cc4)n2)OCC3(C)N)C(F)(F)F)ccc1C#CCO (centres unmarked) [Compound 28] | < 1000 | – | < 1000 | –
CC1(N)COc2c1cc(C(O)(CNC(=O)c1cc3c(c(OC4CC4)c1)OC(=O)NC3)C(F)(F)F)nc2-c1ccc(F)cc1 (centres unmarked) [Compound 32] | < 1000 | – | – | –
CC1(N)COc2c1cc(C(O)(CNC(=O)c1ccc3c(c1)OCCN3CCO)C(F)(F)F)nc2-c1ccc(F)cc1 (centres unmarked) [Compound 33] | < 1000 | – | < 1000 | –
CC1(N)COc2c1cc(C(O)(CNC(=O)c1ccc(OC3CC3)c(OCCO)c1)C(F)(F)F)nc2-c1ccc(F)cc1 (centres unmarked) [Compound 35] | < 1000 | – | – | –
COc1ccc(C(=O)NCC(N)(c2cc(C(C)(C)N)cc(-c3ccc(F)cc3)n2)C(F)(F)F)cc1OCCO (centres unmarked) [Compound 42] | < 1000 | – | – | –
CC1(N)COc2c1cc(C(O)(CNC(=O)c1cnc(OCCO)cc1O)C(F)(F)F)nc2-c1ccc(F)cc1 (centres unmarked) [Compound 46] | – | > 100000 | – | –
COc1nc(C(=O)NCC(O)(c2cc3c(c(-c4ccc(F)cc4)n2)OCC3(C)N)C(F)(F)F)cc2oc(=O)[nH]c12 (centres unmarked) [Compound 48] | < 50000 | 10000 to 100000 | – | –

SMILES | IC50 (recombinant RSV complex) [nM] | CC50 at 5 days [1] [nM] | EC50 [2, 3] [nM] | EC50 [2] [nM]
COc1cc(C(=O)NCC(O)(c2nc(-c3ccc(F)cc3)c3ccccn23)C(F)(F)F)ccc1OCCO (centres unmarked) [Compound 54] | < 50000 | – | – | –
CC(C)(N)c1cc(-c2ccc(F)cc2)nc([C@](O)(CNC(=O)c2ccc(OCCO)c(OC3CC3)c2)C(F)(F)F)c1 [Compound 56] | < 1000 | – | – | –
CC(C)(N)c1cc(-c2ccc(F)cc2)nc([C@](O)(CNC(=O)c2ccc(OC3CC3)c(OCCO)c2)C(F)(F)F)c1 [Compound 58] | < 1000 | – | – | –
COc1cc(C(=O)NC[C@@](O)(c2cc3c(c(-c4ccc(F)cc4)n2)OC[C@@]3(C)N)C(F)(F)F)ncc1OCCO [Compound 77] | < 1000 | – | – | –
COc1cc(C(=O)NCC(O)(c2cn(C(C)(C)CN)cc(-c3ccc(F)cc3)c2=O)C(F)(F)F)ccc1OCCO (centres unmarked) [Compound 78] | < 50000 | – | – | –
COc1cc(C(=O)NC[C@@](O)(c2cc3c(c(-c4ccc(F)cc4)n2)OC[C@@]3(C)N)C(F)(F)F)cc2ccn(CCO)c12 [Compound 89] | < 1000 | – | – | –
COc1cc(C(=O)NC[C@@](O)(c2cc3c(c(-c4ccc(F)cc4)n2)OC[C@@]3(C)N)C(F)(F)F)cc2c1NCCC2 [Compound 96] | < 1000 | – | < 1000 | –
COc1nc(C(=O)NC[C@@](O)(c2cc3c(c(-c4ccc(F)cc4)n2)NC[C@@]3(C)N)C(F)(F)F)cc2c1NC(=O)C2 [Compound 99] | < 1000 | – | – | –
COc1cc(C(=O)NC[C@@](O)(c2cc3c(c(-c4ccc(F)cc4)n2)NCC[C@]3(C)N)C(F)(F)F)ccc1OC[C@@H](C)O [Compound 100] | < 50000 | – | – | –
COc1cc(C(=O)NCC(O)(c2cc3c(c(-c4ccc(F)cc4)n2)OCC32CCN2)C(F)(F)F)ccc1OCCO (centres unmarked) [Compound 109] | < 1000 | 10000 to 100000 | – | –
C[C@@]1(N)COc2c1cc([C@](O)(CNC(=O)c1ccc(Cl)s1)C(F)(F)F)nc2-c1ccc(F)cc1 [Compound 110] | – | 10000 to 100000 | – | –
COc1cc(C(=O)NC[C@@](O)(c2cc3c(C)c[nH]c3c(-c3ccc(F)cc3)n2)C(F)(F)F)ccc1OCCO [Compound 111] | < 1000 | 10000 to 100000 | – | –
COc1cc(C(=O)NCC(O)(c2cc(C3(C)CCNC3)cc(-c3ccc(F)cc3)n2)C(F)(F)F)ccc1OCCO (centres unmarked) [Compound 116] | < 1000 | 10000 to 100000 | – | –
C[C@@]1(N)CNc2c1cc([C@](O)(CNC(=O)c1ccc(OC3CC3)c(OC3CC3)c1)C(F)(F)F)nc2-c1ccc(F)cc1 [Compound 126] | < 1000 | – | – | < 1000
CC[C@]1(N)COc2c1cc([C@](O)(CNC(=O)c1ccc(OC[C@@H](C)O)c(OC)c1)C(F)(F)F)nc2-c1ccc(F)cc1 [Compound 133] | < 1000 | – | – | –
COc1cc(C(=O)NCC(O)(c2nc(-c3ccc(F)cc3)n3ccccc23)C(F)(F)F)ccc1OCCO (centres unmarked) [Compound 137] | < 1000 | – | – | –
